From ChEMBL document CHEMBL2449286, “Structure-activity data for a series of P-glycoprotein inhibitors (Supplementary Data to CHEMBL1142990)” come the findings set out here.

Sequence of ATP-dependent translocase ABCB1 (P08183 whole entry): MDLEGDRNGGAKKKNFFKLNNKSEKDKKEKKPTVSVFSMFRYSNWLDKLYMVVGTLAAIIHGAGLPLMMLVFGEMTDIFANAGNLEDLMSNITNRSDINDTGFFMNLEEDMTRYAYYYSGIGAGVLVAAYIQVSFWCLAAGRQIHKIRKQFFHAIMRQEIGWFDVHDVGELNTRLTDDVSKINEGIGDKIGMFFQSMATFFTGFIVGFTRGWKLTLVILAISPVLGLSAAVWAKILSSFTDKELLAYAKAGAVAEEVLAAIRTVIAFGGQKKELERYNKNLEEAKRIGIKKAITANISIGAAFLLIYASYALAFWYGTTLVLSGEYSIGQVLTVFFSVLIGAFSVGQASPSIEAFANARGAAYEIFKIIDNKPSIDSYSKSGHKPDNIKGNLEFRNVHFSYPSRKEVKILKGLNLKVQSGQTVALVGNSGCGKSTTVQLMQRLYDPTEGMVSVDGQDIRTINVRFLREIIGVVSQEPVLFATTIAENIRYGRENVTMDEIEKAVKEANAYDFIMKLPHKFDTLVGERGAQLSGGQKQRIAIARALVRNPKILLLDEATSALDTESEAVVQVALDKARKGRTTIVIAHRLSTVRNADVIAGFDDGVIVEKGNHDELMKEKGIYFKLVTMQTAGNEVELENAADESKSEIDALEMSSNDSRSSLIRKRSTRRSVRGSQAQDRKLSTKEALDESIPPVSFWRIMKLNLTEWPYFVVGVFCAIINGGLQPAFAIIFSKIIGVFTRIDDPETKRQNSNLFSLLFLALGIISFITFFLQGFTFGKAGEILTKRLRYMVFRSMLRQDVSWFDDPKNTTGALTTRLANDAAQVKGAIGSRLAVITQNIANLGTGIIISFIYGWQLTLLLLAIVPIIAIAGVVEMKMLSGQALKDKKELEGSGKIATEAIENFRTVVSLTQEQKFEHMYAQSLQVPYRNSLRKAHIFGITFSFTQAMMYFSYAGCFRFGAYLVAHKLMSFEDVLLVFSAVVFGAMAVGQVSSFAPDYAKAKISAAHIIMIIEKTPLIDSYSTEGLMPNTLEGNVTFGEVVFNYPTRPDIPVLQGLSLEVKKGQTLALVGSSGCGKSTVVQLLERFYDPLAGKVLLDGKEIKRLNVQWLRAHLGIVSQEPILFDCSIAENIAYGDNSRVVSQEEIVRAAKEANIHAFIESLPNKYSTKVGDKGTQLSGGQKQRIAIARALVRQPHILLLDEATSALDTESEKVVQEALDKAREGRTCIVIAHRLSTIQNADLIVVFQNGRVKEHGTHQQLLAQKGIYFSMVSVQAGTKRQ

The experiment concerns the target ATP-dependent translocase ABCB1 (Homo sapiens, UniProt P08183).
With `CCCNC[C@@H](O)Cn1c(C)c(C(=O)CCc2ccccc2)c(=O)n1-c1ccccc1`, the concentration giving a half-maximal response (EC50) – broadly, the concentration at which the effect is half-maximal – was 6.31 µM.

Take `O=C(CCc1ccccc1)c1ccccc1OC[C@H](O)CN1CCN(Cc2ccccc2)CC1`: the EC50 is 0.661 µM.

On to `O[C@H](COc1ccccc1[C@H](O)CCc1ccccc1)CN1CCCCC1`, for which the concentration for a half-maximal effect (EC50) is 1.51 µM.

`CC(=O)c1cc(C)ccc1OC[C@H](O)CN1CCN(C(=O)Nc2ccc(C)cc2)CC1` had an EC50 of 7.41 µM.

In the case of `CO[C@H](CCc1ccccc1)c1ccccc1OC[C@H](O)CN1CCCCC1`, the concentration giving a half-maximal response (EC50) is 0.174 µM.

`CCCNC[C@@H](O)COc1ccc(O)cc1C(=O)CCc1ccccc1` gave an EC50 of 3.02 µM.

Compound `O=C([C@@H]1Oc2ccccc2[C@@H]1CCc1ccccc1)N1CCCCC1` had a concentration for a half-maximal effect (EC50) of 6.61 µM.

Compound `CC(=O)c1ccc(OC[C@H](O)CN2CCN(c3ccccc3C)CC2)cc1` showed an EC50 of 1.55 µM.

As to `CCC(=O)c1ccccc1OC[C@H](O)CN1CCOCC1`, a half-maximal response (EC50) required 209 µM.

In turn, `O=C(CCc1cccc2ccccc12)c1ccc(OC[C@H](O)CN2CCCCC2)cc1` had an EC50 of 0.263 µM.

Take `CC(C)N(C[C@@H](O)COc1ccc(O)cc1C(=O)CCc1ccccc1)C(C)C`: the EC50 was 1.05 µM.

As to `CC1(C)Oc2ccc(C#N)cc2[C@H](N2CCN(Cc3ccccc3)CC2)[C@H]1O`, the concentration for a half-maximal effect (EC50) is 0.851 µM.

Take `Cc1ccccc1N1CCN(C[C@@H](O)COc2ccccc2C(=O)CCc2ccc(Cl)c(Cl)c2)CC1`: the EC50 was 0.038 µM.

Take `C[C@@H](C(=O)OC(C)(C)C)N(C)[C@H]1c2cc(C#N)ccc2OC(C)(C)[C@@H]1O`: a half-maximal response (EC50) required 3.72 µM.

Regarding `CC(C)[C@H](N[C@H]1c2cc(C#N)ccc2OC(C)(C)[C@@H]1O)C(=O)O`, the half-maximal effective concentration (EC50) is 2.69 µM.

`Cc1cccc(N2CCN(C[C@@H](O)COc3cccc(C(=O)CCc4cccc5ccccc45)c3)CC2)c1C` showed a half-maximal effective concentration (EC50) of 0.263 µM.

`O=C(c1ccccc1)c1ccc(OC[C@H](O)CN2CCN(c3ccc(F)cc3)CC2)cc1`: the EC50 was 0.977 µM.

Compound `Cc1cccc(N2CCN(C[C@@H](O)COc3cccc4c3C(=O)[C@@H](Cc3ccccc3)C4)CC2)c1C` had an EC50 of 0.166 µM.

Take `CCCN(C[C@@H](O)COc1ccccc1C(=O)CCc1ccccc1)C(=O)c1ccccc1`: a half-maximal effect (EC50) was put at 1.7 µM.

The compound `CCC/N=C(/CCc1ccccc1)[C@H]1C(=O)N(c2ccccc2)N=C1C` had a concentration for a half-maximal effect (EC50) of 3.72 µM.

Regarding `O=C(CCc1ccccc1)c1cc(OCc2ccccc2)ccc1OC[C@H](O)CN1CCC(O)(c2ccccc2)CC1`, a half-maximal response (EC50) required 0.0851 µM.

On to `CC(C)N(C[C@@H](O)COc1cccc(C(=O)CCc2cccc3ccccc23)c1)C(C)C`, for which the concentration giving a half-maximal response (EC50) is 0.0589 µM.

Compound `CC(C)(C)[C@@H](NC[C@@H](O)COc1ccccc1C(=O)CCc1ccccc1)c1ccccc1` gave an EC50 of 0.295 µM.

`O=C1C[C@H](CN2CCCCC2)Oc2ccccc21` had a concentration giving a half-maximal response (EC50) of 178 µM.

Turning to `CC[C@H](C)c1ccc(N2C(=O)c3ccccc3N[C@H]2c2ccc(OC)cc2)cc1`, the EC50 was 0.759 µM.

For the compound `Cc1ccccc1N1CCN(CC(O)COc2cccc(C(=O)CCc3cccc4ccccc34)c2)CC1` (stereo not drawn), the EC50 was 0.0708 µM.

Compound `C[C@@H]1N[C@H]2c3cc(C#N)ccc3OC(C)(C)[C@@H]2OC1=O` had an EC50 of 77.6 µM.

`O=C(CCc1ccccc1)c1cc(OCc2ccccc2)ccc1OC[C@H](O)CN1CCN(Cc2ccccc2)CC1`: the EC50 was 0.115 µM.

`CC(C)[C@H](N[C@H]1c2cc(C#N)ccc2OC(C)(C)[C@@H]1O)C(=O)OC(C)(C)C` showed an EC50 of 1.78 µM.

Compound `O=C(c1ccccc1)c1ccc(OC[C@H](O)CN2CCOCC2)cc1` had an EC50 of 5.37 µM.

As for `CC(C)N(C[C@@H](O)COc1ccc(C(=O)CCc2cccc3ccccc23)cc1)C(C)C`, the EC50 is 0.115 µM.

For the compound `CC(C)N(C[C@@H](O)COc1ccccc1[C@H](O)CCc1ccccc1)C(C)C`, the EC50 was 1.74 µM.

Compound `O=C1C[C@H](CN2CCOCC2)Oc2ccccc21` showed an EC50 of 1260 µM.

As for `C[C@@H]1N[C@@H]2c3cc(C#N)ccc3OC(C)(C)[C@H]2OC1=O`, a half-maximal response (EC50) required 1230 µM.

Compound `Cc1ccc(OC[C@H](O)CN2CCN(c3ccccc3C)CC2)c(C(=O)CCc2ccccc2)c1` showed a half-maximal effective concentration (EC50) of 0.0257 µM.

Regarding `CCC(=O)c1ccccc1OC[C@H](O)CN(C(C)C)C(C)C`, the midpoint of the response, the EC50, lay at 4.27 µM.

`O=C1C[C@H](CN2CCN(c3ccc(F)cc3)CC2)Oc2ccccc21` had a 50% effective concentration (EC50) of 17.8 µM.

`Cc1ccc(OC[C@H](O)CN2CCCCC2)c(C(=O)CCc2ccccc2)c1`: it took 0.263 µM to reach a half-maximal effect (EC50).

In turn, `CC(C)N(C[C@@H](O)COc1ccc(C(=O)CCc2ccccc2)cc1)C(C)C` showed an EC50 of 0.912 µM.

With `CCCCNC[C@@H](O)Cn1c(C)c(C(=O)CCc2ccccc2)c(=O)n1-c1ccccc1`, the EC50 was 2.69 µM.

In the case of `Cc1cccc(N2CCN(C[C@@H](O)COc3ccc(C(=O)CCc4cccc5ccccc45)cc3)CC2)c1C`, the EC50 is 0.479 µM.

In turn, `O=C(CCc1ccccc1)c1ccccc1OC[C@H](O)CN1CCOCC1` had a half-maximal effective concentration (EC50) of 3.63 µM.

With `O[C@@H](COc1ccccc1[C@@H](O)CCc1ccccc1)CN1CCN(Cc2ccccc2)CC1`, the EC50 was 0.186 µM.

The compound `O=C1c2cccc(OC[C@H](O)CN3CCCCC3)c2C[C@H]1Cc1ccccc1` had a 50% effective concentration (EC50) of 0.141 µM.

The compound `O=C(CCc1ccccc1)c1cc(OCc2ccccc2)ccc1OC[C@H](O)CN1CCCCC1` showed an EC50 of 0.174 µM.

For `CC(C)N(C[C@@H](O)COc1ccccc1C(=O)CCc1ccccc1)C(C)C`, the EC50 is 0.38 µM.

As to `CC(=O)c1ccc(OC[C@H](O)CN2CCN(c3ccc(F)cc3)CC2)cc1`, the EC50 is 11.7 µM.

The compound `CCC(=O)c1ccc(OC[C@H](O)CN2CCN(c3ccc(F)cc3)CC2)cc1` gave a half-maximal effective concentration (EC50) of 1.45 µM.

Consider `O=C(CCc1ccccc1)c1ccc(OC[C@H](O)CN2CCOCC2)cc1`, for which a half-maximal effect (EC50) was put at 6.92 µM.

On to `O=C(CCc1ccccc1)c1ccccc1OC[C@H](O)CNC(c1ccccc1)c1ccccc1`, for which the 50% effective concentration (EC50) is 10.5 µM.

`Cc1ccc(NC(=S)N2CCN(C[C@@H](O)COc3ccccc3C(=O)c3ccccc3)CC2)cc1` gave an EC50 of 0.38 µM.

`CCOc1ccccc1NC(=O)C1=C(C)NC(=S)N[C@@H]1c1cccs1` had an EC50 of 8.71 µM.

Consider `CC(C)C(CO)N(C)[C@H]1c2cc(C#N)ccc2OC(C)(C)[C@@H]1O` (stereo partly drawn), for which the EC50 was 6.92 µM.

Compound `COc1ccc(CCC(=O)c2ccccc2OC[C@H](O)CN2CCN(c3ccccc3C)CC2)cc1` gave a half-maximal effective concentration (EC50) of 0.0141 µM.

In turn, `CC(C)[C@H](C(=O)OC(C)(C)C)N(C)[C@@H]1c2cc(C#N)ccc2OC(C)(C)[C@H]1O` had a concentration giving a half-maximal response (EC50) of 1 µM.

On to `Cc1ccc(-c2n[nH]c3c2[C@@H](c2ccc(N(C)C)cc2)C(C#N)=C(N)O3)cc1`, for which the EC50 is 3.09 µM.

`CC1(C)Oc2ccc(C#N)cc2[C@H](NCc2ccccc2)[C@H]1O` gave an EC50 of 35.5 µM.

The compound `COc1ccccc1N1CCN(C[C@@H](O)COc2ccccc2C(=O)CCc2ccccc2)CC1` gave a concentration for a half-maximal effect (EC50) of 0.229 µM.

`CC(C)[C@@H]1N[C@H]2c3cc(C#N)ccc3OC(C)(C)[C@@H]2OC1=O` showed an EC50 of 58.9 µM.

Take `O=C(c1ccccc1)c1ccc(OC[C@H](O)CN2CCCCC2)cc1`: the EC50 is 2.19 µM.

In turn, `CO[C@H](CCc1ccccc1)c1ccccc1OC[C@H](O)CNCCC(c1ccccc1)c1ccccc1` had a half-maximal effective concentration (EC50) of 0.759 µM.

Regarding `Cc1ccc(C(=O)O[C@@H]2[C@H](N3CCCC3)c3ccccc3N[C@@H]2C)cc1`, the EC50 was 4.68 µM.

With `Cc1c(C(=O)CCc2ccccc2)c(=O)n(-c2ccccc2)n1C[C@H](O)CNC(C)(C)C`, the response was half-maximal at 7.76 µM (EC50).

Turning to `CC(=O)c1cc(C)ccc1OC[C@H](O)CN(C(C)C)C(C)C`, the half-maximal effective concentration (EC50) was 6.17 µM.

Take `Cc1ccccc1N1CCN(C[C@@H](O)COc2ccc(C(=O)CCc3cccc4ccccc34)cc2)CC1`: a half-maximal effect (EC50) was put at 0.407 µM.

`O[C@@H](COc1ccccc1[C@H](O)CCc1ccccc1)CN1CCOCC1` showed a half-maximal effective concentration (EC50) of 9.55 µM.

`CN(CCO)[C@H]1c2cc(C#N)ccc2OC(C)(C)[C@@H]1O` had a concentration giving a half-maximal response (EC50) of 97.7 µM.

Consider `CC(C)[C@@H](CCl)N(C)[C@@H]1c2cc(C#N)ccc2OC(C)(C)[C@H]1O`, for which the concentration for a half-maximal effect (EC50) is 35.5 µM.

On to `O=C(CCc1ccccc1)c1cc(O)ccc1OC[C@H](O)CN1CCN(Cc2ccccc2)CC1`, for which the EC50 is 0.525 µM.

Turning to `CCC(=O)N(Cc1ccccc1)C[C@@H](O)COc1ccccc1C(=O)CCc1ccccc1`, the EC50 was 1.66 µM.

Consider `O=C(CCc1ccccc1)c1ccccc1OC[C@H](O)CNCCC(c1ccccc1)c1ccccc1`, for which a half-maximal response (EC50) required 0.724 µM.

For the compound `CCC(=O)c1ccccc1OC[C@H](O)CN1CCN(c2ccc(F)cc2)CC1`, the half-maximal effective concentration (EC50) was 0.832 µM.

`CN(C)C[C@@H](O)COc1ccccc1C(=O)CCc1ccccc1`: the half-maximal effective concentration (EC50) was 2.45 µM.

Compound `CCC(=O)c1ccccc1OC[C@H](O)CN1CCCCC1` gave a half-maximal effective concentration (EC50) of 14.5 µM.

Compound `CCC(=O)c1ccc(OC[C@H](O)CN2CCCCC2)cc1` had an EC50 of 33.1 µM.

The compound `Cc1ccc(C(=O)N2c3ccccc3[C@@H](N(CCO)Cc3ccccc3)[C@@H](O)[C@H]2C)cc1` gave an EC50 of 1.38 µM.

As to `O=C1CCc2c(OC[C@H](O)CN3CCCCC3)cccc21`, a half-maximal effect (EC50) was put at 11.2 µM.

The compound `CN(CCN(C)S(=O)(=O)c1cccc2c(N(C)C)cccc12)C[C@@H](O)COc1ccccc1C(=O)c1ccccc1` showed an EC50 of 1.82 µM.

For the compound `CO[C@@H](CCc1ccccc1)c1ccccc1OC[C@H](O)CN1CCN(Cc2ccccc2)CC1`, the 50% effective concentration (EC50) was 0.0794 µM.

As for `CCCNC[C@@H](O)Cn1c(C)c(C(=O)c2ccccc2)c(=O)n1-c1ccccc1`, a half-maximal effect (EC50) was put at 186 µM.

Turning to `c1ccc(CC[C@H]2c3ccccc3O[C@H]2CN2CCCCC2)cc1`, a half-maximal effect (EC50) was put at 1.62 µM.

For `O=C(c1ccccc1)c1cccc(OC[C@H](O)CN2CCCCC2)c1`, the concentration giving a half-maximal response (EC50) was 3.55 µM.

`O=C(CCc1cccc2ccccc12)c1ccccc1OC[C@H](O)CNCCC(c1ccccc1)c1ccccc1` showed a 50% effective concentration (EC50) of 0.724 µM.

`CCC(=O)c1ccc(OC[C@H](O)CN2CCN(c3cccc(C)c3C)CC2)cc1` gave an EC50 of 1.41 µM.

As to `CC(C)[C@@H](CCl)N(C)[C@@H]1C2C=C(C#N)C=CC2OC(C)(C)[C@H]1O` (stereo partly drawn), the EC50 was 2.24 µM.

On to `Cc1ccccc1N1CCN(C[C@@H](O)Cn2c(C)c(C(=O)c3ccccc3)c(=O)n2-c2ccccc2)CC1`, for which the EC50 was 0.891 µM.

`O=C(CCc1ccccc1)c1ccccc1OC[C@H](O)CNc1ccc(C(F)(F)F)cc1` had an EC50 of 8.51 µM.

Regarding `Cc1c(C(=O)c2cccs2)c(=O)n(-c2ccccc2)n1C[C@H](O)CNC(C)C`, the EC50 was 123 µM.
